Tests used:
[1] = Excipient (HP-CD) effects on food intake and body weight; assay type: in vivo; settings: 2% HP-CD/saline, 1 mL/kg, 7 days, lean male rats n = 5
Method: As the excipient used to place ASK1476 in solution, HP-CD, was used in excess, a preliminary experiment was run to examine whether it produces any anorectic effects independently. Testing consisted of a 7-day normal saline treated phase followed by a 7-day 2% HP-CD/saline solution (dose 1 mL/kg) treated phase in lean male rats (n = 5; at start of HP-CD treatment: mean 410 g, SD 26 g). […] Food intake was continuously recorded using AccuScan DietMax (currently OmniTech Electronics, Inc., Diet System) cages and data were binned into 15-min intervals for analysis. The start of the 24-h food intake period aligned to the lights turning off in the animal room. Body weight was recorded, and treatment injections were administered just prior to the start of the dark cycle.

[2] = system: V2R; settings: V2R agonist; no reference given; cited from earlier work
From the text: Whereas the overall profile of ASK1476 met the primary aim of our studies including the enhanced stability of the OXTR activator in vivo, the molecule did display a significant activation of the V2R. As mentioned above, the receptor plays the key role in both urine and water homeostasis.

Hydroxypropyl-β-cyclodextrin [HP-CD]
7-day food intake, difference vs saline ([1]; 95% CU −0.19 to 0.71, p = 0.187): 0.26 g | body weight gain, difference vs saline ([1]; 95% CU −0.99 to 0.95, p = 0.950): -0.02 g

desmopressin
side effects in the clinical setting [2]: hyponatremia and renal water retention
